Experimental data reported in article PMC5882164, “A novel calcimimetic agent, evocalcet (MT-4580/KHK7580), suppresses the parathyroid cell function with little effect on the gastrointestinal tract or CYP isozymes in vivo and in vitro” (PLoS ONE, 2018).
“And” between values parts separate entries of the source, which are not always exact repeats. Identical values can stand only once.

How the values were obtained:
CYP2C8 = target: T1, CYP2C8 (Homo sapiens, UniProt P10632); experiment: CYP inhibition assay in human liver microsomes; assay type: in vitro ADME; conditions: no pre-incubation, read-out: IC50 direct inhibition of CYP2C8
T1 construct: from tissue; host or cells: human liver microsomes
T1 sequence (P10632 1-490): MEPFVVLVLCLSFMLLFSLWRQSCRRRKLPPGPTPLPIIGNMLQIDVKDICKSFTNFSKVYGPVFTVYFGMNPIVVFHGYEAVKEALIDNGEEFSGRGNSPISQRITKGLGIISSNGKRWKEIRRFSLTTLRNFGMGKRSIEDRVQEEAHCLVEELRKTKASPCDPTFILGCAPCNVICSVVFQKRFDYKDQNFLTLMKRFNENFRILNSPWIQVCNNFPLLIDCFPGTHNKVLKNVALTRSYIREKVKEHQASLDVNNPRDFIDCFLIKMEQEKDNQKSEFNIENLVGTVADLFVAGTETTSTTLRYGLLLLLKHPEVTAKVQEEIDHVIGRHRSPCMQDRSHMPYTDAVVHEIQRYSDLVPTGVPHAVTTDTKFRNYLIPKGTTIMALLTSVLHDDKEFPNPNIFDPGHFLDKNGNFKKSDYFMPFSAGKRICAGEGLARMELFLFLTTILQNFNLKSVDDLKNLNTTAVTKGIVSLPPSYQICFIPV
Experimental: (§1) The direct inhibition of evocalcet (0.15~50 μM, 6-point concentrations) against the specific activities of 9 CYP isozymes (CYP1A2, CYP2A6, CYP2B6, CYP2C8, CYP2C9, CYP2C19, CYP2D6, CYP2E1, and CYP3A4/5) was examined in human liver microsomes without the pre-incubation of evocalcet, in the presence of the NADPH-generating system. Each CYP substrate was incubated with human liver microsomes in the absence or presence of evocalcet, and the inhibition of evocalcet for each CYP isozyme was measured.

CYP2A6 = target: T2, CYP2A6 (Homo sapiens, UniProt P11509); experiment: CYP inhibition assay in human liver microsomes; assay type: in vitro ADME; conditions: no pre-incubation, read-out: IC50 direct inhibition of CYP2A6
T2 construct: from tissue; host or cells: human liver microsomes
T2 sequence (P11509 1-494): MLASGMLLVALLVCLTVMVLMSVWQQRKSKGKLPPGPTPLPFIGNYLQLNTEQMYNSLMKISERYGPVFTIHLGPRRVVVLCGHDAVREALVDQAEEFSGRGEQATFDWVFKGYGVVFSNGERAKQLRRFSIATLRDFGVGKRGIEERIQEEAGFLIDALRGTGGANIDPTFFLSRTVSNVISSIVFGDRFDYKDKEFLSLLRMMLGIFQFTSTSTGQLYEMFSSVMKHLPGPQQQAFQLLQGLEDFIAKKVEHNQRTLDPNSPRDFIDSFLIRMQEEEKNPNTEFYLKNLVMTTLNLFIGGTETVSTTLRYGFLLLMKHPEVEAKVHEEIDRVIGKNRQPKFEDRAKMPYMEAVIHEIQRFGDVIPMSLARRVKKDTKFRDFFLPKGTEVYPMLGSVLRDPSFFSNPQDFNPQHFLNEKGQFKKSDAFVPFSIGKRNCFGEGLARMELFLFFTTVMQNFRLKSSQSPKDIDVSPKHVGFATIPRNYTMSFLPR
Experimental: as §1

serum calcium = experiment: 5/6 nephrectomized rats study: serum calcium level; assay type: in vivo, rat; conditions: 5/6 Nx rats; for Serum Ca levels before (day 0) and 24 h after evocalcet administration, Mean / Serum Ca levels after the first administration, Mean: group mean; for Serum Ca levels before (day 0) and 24 h after evocalcet administration / Serum Ca levels after the first administration: individual rats
Experimental: Rats were 5/6 nephrectomized in two steps. Under anesthesia (pentobarbital, 50 mg/kg; intraperitoneally) and analgesia (lidocaine; topically), two-thirds of the left kidney was removed, and then the right kidney was removed after a seven-day interval. Seven days after the completion of 5/6 nephrectomy, the FR-2 diet was changed to a high-phosphate diet, containing 0.6% calcium and 0.9% phosphate (Oriental Yeast Co., Ltd., Tokyo, Japan). Approximately 2 weeks after the initiation of the high-phosphate diet, the 5/6 Nx rats were divided into five groups (n = 12/group) matched in terms of their body weight as well as their blood urea nitrogen (BUN) and serum PTH and calcium levels.
In the single-dose study, blood samples were collected from the tail vein before and at 0.5, 2, 4, 8, 24, 48, and 72 h after the oral administration of vehicle (0.5% methyl cellulose solution) or evocalcet (0.03, 0.1, 0.3, or 1 mg/kg). In the repeated-dose study, vehicle or evocalcet was orally administered to the respective groups once daily for 14 days. Blood samples were obtained from the tail vein before the first administration and after the seventh and last administrations.
The serum PTH level was measured using a Rat Intact PTH ELISA kit (Immutopics, Inc., San Clemente, CA). The serum calcium, phosphate and BUN levels were measured using an auto analyzer (Hitachi High-Technologies Corporation., Tokyo, Japan) or the following test kits: the Calcium E-test WAKO, the Phospha C-test WAKO, or the Blood Urea nitrogen B-test WAKO (Wako Pure Chemical Industries, Ltd., Osaka, Japan).

Question: With `C[C@@H](N[C@H]1CCN(c2ccc(CC(=O)O)cc2)C1)c1cccc2ccccc12` [evocalcet] as the compound, how does the IC50 (CYP2C8) read?
Answer: The IC50 was over 50 µM.

Question: What about the IC50 (CYP2A6) of the same compound?
Answer: Its IC50 is over 50 µM.

Question: What about the “Serum Ca levels before (day 0) and 24 h after evocalcet administration, Mean” value (serum calcium; 0.03 mg/kg, day 0 (Before)) of the same compound?
Answer: The value was 7.862.

Question: What about the “Serum Ca levels before (day 0) and 24 h after evocalcet administration” value (serum calcium; 0.03 mg/kg, day 0 (Before), 0.03 mg/kg) of the same compound?
Answer: The value was 6.475 and 7.379 and 7.410 and 6.746 and 6.842 and 8.689 and 8.077 and 8.881 and 8.577 and 8.645 and 8.453 and 8.169.

Question: And the “Serum Ca levels before (day 0) and 24 h after evocalcet administration, Mean” value (serum calcium; 0.03 mg/kg, day 7 (24 h))?
Answer: The value was 6.700.

Question: And the “Serum Ca levels before (day 0) and 24 h after evocalcet administration” value (serum calcium; 0.03 mg/kg, day 7 (24 h), 0.03 mg/kg)?
Answer: The value was 4.756 and 6.463 and 7.204 and 6.649 and 7.424 and 7.568 and 6.316 and 6.947 and 6.611 and 7.154 and 6.338 and 6.972.

Question: And the “Serum Ca levels before (day 0) and 24 h after evocalcet administration, Mean” value (serum calcium; 0.03 mg/kg, day 14 (24 h))?
Answer: The value was 7.524.

Question: What about the “Serum Ca levels before (day 0) and 24 h after evocalcet administration” value (serum calcium; 0.03 mg/kg, day 14 (24 h), 0.03 mg/kg) of the same compound?
Answer: The value was 6.629 and 7.365 and 7.620 and 6.148 and 7.312 and 8.717 and 7.991 and 8.107 and 7.192 and 7.532 and 7.865 and 7.809.

Question: What about the “Serum Ca levels after the first administration, Mean” value (serum calcium; 0.03 mg/kg, time 0 h) of the same compound?
Answer: The value was 7.862.

Question: And the “Serum Ca levels after the first administration” value (serum calcium; 0.03 mg/kg, time 0 h)?
Answer: The value was 6.475 and 7.379 and 7.410 and 6.746 and 6.842 and 8.689.

Question: And the “Serum Ca levels after the first administration, Mean” value (serum calcium; 0.03 mg/kg, time 0.5 h)?
Answer: Its value is 7.066.

Question: And the “Serum Ca levels after the first administration” value (serum calcium; 0.03 mg/kg, time 0.5 h)?
Answer: Its value is 5.843 and 6.570 and 6.547 and 6.666 and 6.639 and 7.943.

Question: And the “Serum Ca levels after the first administration, Mean” value (serum calcium; 0.03 mg/kg, time 2 h)?
Answer: Its value is 7.130.

Question: And the “Serum Ca levels after the first administration” value (serum calcium; 0.03 mg/kg, time 2 h)?
Answer: The value was 6.221 and 6.752 and 6.943 and 6.746 and 6.851 and 7.851.

Question: And the “Serum Ca levels after the first administration, Mean” value (serum calcium; 0.03 mg/kg, time 4 h)?
Answer: Its value is 7.511.

Question: What about the “Serum Ca levels after the first administration” value (serum calcium; 0.03 mg/kg, time 4 h) of the same compound?
Answer: The value was 6.129 and 7.183 and 6.895 and 7.539 and 6.860 and 8.183.

Question: What about the “Serum Ca levels after the first administration, Mean” value (serum calcium; 0.03 mg/kg, time 8 h) of the same compound?
Answer: The value was 7.889.

Question: What about the “Serum Ca levels after the first administration” value (serum calcium; 0.03 mg/kg, time 8 h) of the same compound?
Answer: The value was 7.265 and 7.625 and 7.368 and 8.097 and 7.474 and 8.633.

Question: What about the “Serum Ca levels after the first administration, Mean” value (serum calcium; 0.03 mg/kg, time 24 h) of the same compound?
Answer: The value was 7.657.

Question: What about the “Serum Ca levels after the first administration” value (serum calcium; 0.03 mg/kg, time 24 h) of the same compound?
Answer: Its value is 7.337 and 7.644 and 7.429 and 7.568 and 7.040 and 8.620.

Question: And the “Serum Ca levels before (day 0) and 24 h after evocalcet administration, Mean” value (serum calcium; 0.1 mg/kg, day 0 (Before))?
Answer: The value was 7.709.

Question: What about the “Serum Ca levels before (day 0) and 24 h after evocalcet administration” value (serum calcium; 0.1 mg/kg, day 0 (Before), 0.1 mg/kg) of the same compound?
Answer: The value was 7.331 and 8.275 and 7.642 and 7.659 and 8.173 and 8.364 and 6.513 and 7.933 and 8.070 and 7.690 and 6.674 and 8.180.

Question: And the “Serum Ca levels before (day 0) and 24 h after evocalcet administration, Mean” value (serum calcium; 0.1 mg/kg, day 7 (24 h))?
Answer: Its value is 7.317.

Question: What about the “Serum Ca levels before (day 0) and 24 h after evocalcet administration” value (serum calcium; 0.1 mg/kg, day 7 (24 h), 0.1 mg/kg) of the same compound?
Answer: Its value is 7.427 and 8.099 and 7.493 and 7.242 and 7.637 and 7.025 and 6.448 and 7.138 and 7.123 and 6.680 and 7.302 and 8.184.

Question: What about the “Serum Ca levels before (day 0) and 24 h after evocalcet administration, Mean” value (serum calcium; 0.1 mg/kg, day 14 (24 h)) of the same compound?
Answer: The value was 7.011.

Question: What about the “Serum Ca levels before (day 0) and 24 h after evocalcet administration” value (serum calcium; 0.1 mg/kg, day 14 (24 h), 0.1 mg/kg) of the same compound?
Answer: Its value is 7.048 and 7.642 and 6.969 and 7.601 and 6.617 and 6.853 and 5.928 and 7.145 and 7.117 and 6.576 and 7.375 and 7.261.

Question: And the “Serum Ca levels after the first administration, Mean” value (serum calcium; 0.1 mg/kg, time 0 h)?
Answer: Its value is 7.709.

Question: And the “Serum Ca levels after the first administration” value (serum calcium; 0.1 mg/kg, time 0 h)?
Answer: The value was 7.331 and 8.275 and 7.642 and 7.659 and 8.173 and 8.364 and 6.513 and 7.933 and 8.070 and 7.690 and 6.674.

Question: And the “Serum Ca levels after the first administration, Mean” value (serum calcium; 0.1 mg/kg, time 0.5 h)?
Answer: Its value is 6.755.

Question: What about the “Serum Ca levels after the first administration” value (serum calcium; 0.1 mg/kg, time 0.5 h) of the same compound?
Answer: The value was 6.761 and 6.580 and 6.840 and 7.344 and 6.409 and 6.926 and 6.241 and 6.919 and 6.445 and 6.968 and 6.307.

Question: What about the “Serum Ca levels after the first administration, Mean” value (serum calcium; 0.1 mg/kg, time 2 h) of the same compound?
Answer: The value was 6.694.

Question: What about the “Serum Ca levels after the first administration” value (serum calcium; 0.1 mg/kg, time 2 h) of the same compound?
Answer: The value was 6.582 and 6.412 and 6.604 and 7.150 and 6.977 and 6.857 and 5.795 and 6.903 and 7.147 and 6.715 and 6.267.
